Results as given in US20060189551A1 (priority 2004, published 2006).

What was measured:
[1] = biological target: FKBP12-aspartokinase interaction (Saccharomyces cerevisiae, UniProt P20081)
Method: (§1) Transformants from yeast two-hybrid host strain PJ69-4A coexpressing Ga14 DNA-binding domain (BD) fusion proteins from plasmid pGBT9-Fpr1 (BD-Fpr1), pGBT9-AK (BD-AK), or pGBT9-AK(E282D) (BD-AD^E282D) and Ga14 activation domain (AD) fusion proteins from plasmids pGAD424-AK (AD-AK) or pGAD424-AK(E282D) (AD-AK^E212D) were grown in SD medium supplemented with uracil, adenine, methionine, and histidine (YNB) or in the same medium plus 1 g of L-threonine/liter (YNB+Thr) or 10 μg of FK506/mL (YNB+FK506), and induction of the lacZ reporter gene was quantified by assaying beta-galactosidase activity. PJ69-4A cotransformed with vectors pGBT9 (BD) and pGAD424 (AD) was assayed as a control.
(§2) Yeast two-hybrid host strain PJ69-4A was cotransformed with plasmids expressing the Ga14 DNA binding-domain (BD) and Ga14 activation domain (AD) fusion proteins. The transformants were grown in Siluid SD medium supplemented with adenine, uracil, methionine, and histidine or in the same medium with the 1 g of L-threonine/liter or with 10 mg of FK506/liter, and induction of the lacZ reporter gene was measured as beta-galactosidase activity as disclosed in Cardenas et al., EMBO J., 14, 5892-5907. […]

[2] = biological target: FKBP12-aspartokinase interaction (Saccharomyces cerevisiae, UniProt P10869, E282D); details: 30 mM L-threonine added to binding reaction
Method: (§3) FKBP12-aspartokinase (AK) and AK-AK interaction by in vitro affinity chromatography. Crude protein extracts obtained from a wild-type strain (BY4741) or from a strain expressing the HOM3-R7 mutant allele (MAY315) were incubated with His6-tagged yeast FKPB12 coupled to agarose beads in the presence or absence of 30 mM L-threonine. Bound proteins were eluted and analyzed by Western blotting with antibodies against yeast aspartokinase. Binding reactions wit agarose beads alone were included as controls.

[3] = biological target: FKBP12-aspartokinase interaction (Saccharomyces cerevisiae, UniProt P10869); details: 30 mM L-threonine added to binding reaction
FKBP12-aspartokinase interaction (Saccharomyces cerevisiae, UniProt P10869), sequence (P20081 2-114, one chain of several): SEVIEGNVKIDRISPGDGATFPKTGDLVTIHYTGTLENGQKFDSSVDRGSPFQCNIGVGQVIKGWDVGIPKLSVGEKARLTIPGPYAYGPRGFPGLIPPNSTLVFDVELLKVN
Method: as §3

[4] = test system: FKBP12-aspartokinase interaction; details: 1 g of L-threonine/liter in culture medium (YNB+Thr)
Method: as §1, §2

aspartokinase [5] = biological target: aspartokinase (Saccharomyces cerevisiae, UniProt P10869, E282D); details: 5 mM threonine
aspartokinase (Saccharomyces cerevisiae, UniProt P10869, E282D), sequence (P10869 whole entry E282D): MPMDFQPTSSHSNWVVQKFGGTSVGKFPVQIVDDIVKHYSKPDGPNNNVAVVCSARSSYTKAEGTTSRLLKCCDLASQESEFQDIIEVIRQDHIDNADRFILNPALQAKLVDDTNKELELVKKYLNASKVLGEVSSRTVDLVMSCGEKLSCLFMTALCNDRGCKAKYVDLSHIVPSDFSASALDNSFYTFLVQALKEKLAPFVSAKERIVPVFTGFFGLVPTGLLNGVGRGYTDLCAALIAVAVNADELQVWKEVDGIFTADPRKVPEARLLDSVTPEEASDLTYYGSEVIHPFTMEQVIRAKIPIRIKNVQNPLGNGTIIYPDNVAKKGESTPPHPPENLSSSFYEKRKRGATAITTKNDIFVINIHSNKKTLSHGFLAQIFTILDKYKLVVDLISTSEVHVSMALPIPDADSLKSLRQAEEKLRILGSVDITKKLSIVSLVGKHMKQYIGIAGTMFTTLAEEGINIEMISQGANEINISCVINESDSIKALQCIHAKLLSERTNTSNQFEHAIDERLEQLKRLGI
Method: (§4) Aspartokinase (AK) activity in partially purified extracts obtained from the strains described in FIG. 8A was assayed in the presence or absence of threonine (1 or 5 mM).
(§5) AK activity was measured with an enzymatic assay that couples ADP formation with NADH depletion, using pyruvate kinase/lactate dehydrogenase system.
(§6) Aspartokinase activity was assayed in the presence and absence of threonine from wild-type and fpr1, hom6 or HOM3-R7 feedback-resistant mutant cells.

aspartokinase [6] = biological target: T1, aspartokinase (Saccharomyces cerevisiae, UniProt P10869)
T1 sequence (P10869 1-527): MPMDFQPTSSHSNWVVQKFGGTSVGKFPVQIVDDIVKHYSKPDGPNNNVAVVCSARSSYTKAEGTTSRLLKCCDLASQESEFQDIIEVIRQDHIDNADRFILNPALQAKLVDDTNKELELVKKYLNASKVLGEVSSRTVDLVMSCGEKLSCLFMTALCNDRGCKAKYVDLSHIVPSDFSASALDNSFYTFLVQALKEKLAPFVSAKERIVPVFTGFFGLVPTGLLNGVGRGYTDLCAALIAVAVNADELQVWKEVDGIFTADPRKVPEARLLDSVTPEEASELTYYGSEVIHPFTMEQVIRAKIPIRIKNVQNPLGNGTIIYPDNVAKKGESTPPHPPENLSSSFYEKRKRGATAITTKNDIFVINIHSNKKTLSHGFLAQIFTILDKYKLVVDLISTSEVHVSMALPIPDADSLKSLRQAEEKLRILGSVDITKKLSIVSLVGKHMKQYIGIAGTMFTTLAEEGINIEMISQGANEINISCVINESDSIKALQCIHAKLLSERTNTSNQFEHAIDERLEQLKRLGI
Method: as §4, §5, §6

FKBP12-aspartokinase interaction (Saccharomyces cerevisiae, UniProt P10869, E282D), sequence (P20081 2-114): as the sequence (P20081 2-114, one chain of several) above
FKBP12-aspartokinase interaction (Saccharomyces cerevisiae, UniProt P10869, E282D), sequence (P10869 whole entry E282D): as the sequence (P10869 whole entry E282D) above
FKBP12-aspartokinase interaction (Saccharomyces cerevisiae, UniProt P20081), sequence (P20081 2-114): as the sequence (P20081 2-114, one chain of several) above

Row | Compound | FKBP12-aspartokinase binding in the presence of FK506 [1] | FKBP12 interaction with feedback resistant aspartokinase (HOM3-R7) [2] | FKBP12 interaction with wild-type aspartokinase [3] | FKBP12-AK and FKBP12-AK^E282D binding [4] | activity of feedback-resistant aspartokinase (HOM3-R7) (aspartokinase [5]) | aspartokinase activity from wild-type and fpr1Δ strains (aspartokinase [6]; 1 mM threonine) | aspartokinase activity (feedback inhibition) (aspartokinase [6]; 5 mM threonine) | aspartokinase activity of the hom6Δ mutant (aspartokinase [6]; threonine 1 or 5 mM)
1 | C=CC[C@@H]1/C=C(\C)C[C@H](C)C[C@H](OC)[C@H]2O[C@@](O)(C(=O)C(=O)N3CCCC[C@H]3C(=O)O[C@H](/C(C)=C/[C@@H]3CC[C@@H](O)[C@H](OC)C3)[C@H](C)[C@@H](O)CC1=O)[C@H](C)C[C@@H]2OC (relative stereo) [FK506, [3S-[3R*[E(1S*,3S*,4S*)],4S*,5R*,8S*,9E,12R*,14R*,15S*,16R*,18S*,19S*,26aR*]]-5,6,8,11,12,13,14,15,16,17,18,19,24,25,26,26a-hexadecahydro-5,19-dihydroxy-3-[2-(4-hydroxy-3-methoxycyclohexyl)-1-methylethenyl]-14,16-dimethoxy-4,10,12,18-tetramethyl-8-(2-propenyl)-15,19-epoxy-3H-pyrido[2,1-c][1,4]oxaazacyclotricosine-1,7,20,21(4H,23H)-tetrone, reference compound] | nearly abolished | – | – | – | – | – | – | –
2 | C[C@@H](O)[C@H](N)C(=O)O [threonine, L-threonine] | – | not with feedback resistant aspartokinase | increased | increased | no inhibition | inhibited to comparable levels | completely feedback inhibited | inhibited
